These results are taken from patent publication US20080064714A1, “Novel Pyrrolodihydroisoquinolines” (NYCOMED GMBH, priority 2005, published 2008).

In data set [1] the test system is NCl-H460 non-small cell lung cancer cells. In words: Alamar Blue cell viability assay (anti-proliferative/cytotoxic activity). In kind it is cell-based. As to conditions: Homo sapiens, NCI-H460 cells, 72 hours incubation, read-out: −log IC50 NCI-H460 (mol/l), anti-proliferative/cytotoxic activity (converted). As for the experimental part: The anti-proliferative/cytotoxic activity of the compounds described herein, can be tested on NCl-H460 non-small cell lung cancer cells using the Alamar Blue cell viability assay (described in O'Brien et al. Eur J Biochem 267, 5421-5426, 2000). The compounds are dissolved as 20 mM solutions in dimethylsulfoxide (DMSO) and subsequently diluted in semi-logarithmic steps. DMSO dilutions are further diluted 1:10 into Dulbecco's modified Eagle's medium (DMEM) containing 10% fetal calf serum to a final concentration ten times as much as the final concentration in the test. NCl-H460 cells are seeded into 96 well flat bottom plates at a density of 4000 cells per well in a volume of 180 μl per well. 24 hours after seeding the 20 μl each of the compound dilutions in DMEM medium are added into each well of the 96 Well plate. Each compound dilution is tested as quadruplicates. Wells containing untreated control cells are filled with […] DMEM medium containing 1% DMSO. The cells are then incubated with the substances for 72 hours at 37° C. in a humified atmosphere containing 5% carbon dioxide. To determine the viability of the cells, 20 μl of an Alamar Blue solution (Biosource) are added and the fluorescence is measured at an extinction of 544 nm and an emission of 590 nm. For the calculation of cell viability the emission value from untreated cells is set to 100% viability and the emission rates of treated cells are set in relation to the values of untreated cells. Viabilities are expressed as % values.
The corresponding IC50 values of the compounds for anti-proliferative/cytotoxic activity are determined from the concentration-effect curves.
Representative IC50 values for anti-proliferation/cytotoxicity determined in the aforementioned assay follow from the following table A, in which the numbers of the compound correspond to the numbers of the examples.

Data set [2] shares this test system. Description: modified Alamar Blue cell viability assay for compound combinations. In kind it is cell-based. As to conditions: in combination with the compounds according to this invention; concentration-effect curves, single compound vs. combination. The procedure: In order to assess favorable compound combinations in vitro which might be used for therapeutic applications, a modified Alamar Blue cell viability assay (described in O'Brien et al. Eur J Biochem 267, 5421-5426, 2000) is applied. For that purpose, anti-proliferative/cytotoxic effects of the compounds described herein in combination with other pharmacologically active compounds are assayed on NCl-H460 non-small cell lung cancer cells. The respective compounds are dissolved as 20 mM solutions in dimethylsulfoxide (DMSO) and subsequenty diluted in semi-logarithmic steps. […] To determine the viability of the cells, 20 μl of an Alamar Blue solution (Biosource) are added and the fluorescence is measured at an extinction of 544 nm and an emission of 590 nm. For the calculation of cell viability the fluorescence emission value from untreated cells is set to 100% viability and the emission values of treated cells are set in relation to the values of untreated cells. Viabilities are expressed as % values. […]
Synergistic or antagonistic effects of compound combinations can be determined from the concentration-effect curves by comparison of curve shapes and IC50 values for single compound treatment vs. the compound combination.
(Alamar Blue is a resazurin reagent that responds to reducing activity.)

As to `CCC(=O)c1c(-c2cc(C)c(O)c(C)c2)c(C)n2c1-c1cc(OC)c(OC)cc1CC2` [Example 1, 1-[2-(4-Hydroxy-3,5-dimethyl-phenyl)-8,9-dimethoxy-3-methyl-5,6-dihydro-pyrrolo[2,1-a]isoquinolin-1-yl]-propan-1-one], the IC50 in data set [1] is 158 to 1580 nM.

Broadly, the melting point is the temperature, or range, at which the solid turns liquid. The molecule `CCC(=O)c1c(-c2ccc(OC)c(OC)c2F)c(C)n2c1-c1cc(OC)c(OC)cc1CC2` [Example 2, 1-[2-(2-Fluoro-3,4-dimethoxy-phenyl)-8,9-dimethoxy-3-methyl-5,6-dihydro-pyrrolo[2,1-a]isoquinolin-1-yl]-propan-1-one] came in with a melting point of 129 to 132 °C.

On to `CCC(=O)c1c(-c2csc3ccccc23)c(C)n2c1-c1cc(OC)c(OC)cc1CC2` [Example 3, 1-(2-Benzo[b]thiophen-3-yl-8,9-dimethoxy-3-methyl-5,6-dihydro-pyrrolo[2,1-a]isoquinolin-1-yl)-propan-1-one], for which the melting point fell in the range of 181 to 183 °C. Also, the IC50 in data set [1] is 158 to 1580 nM.

In the case of `CCC(=O)c1c(-c2c[nH]c3ccccc23)c(C)n2c1-c1cc(OC)c(OC)cc1CC2` [Example 4, 1-[2-(1H-Indol-3-yl)-8,9-dimethoxy-3-methyl-5,6-dihydro-pyrrolo[2,1-a]isoquinolin-1-yl]-propan-1-one], the melting point was 238 to 240 °C. The IC50 in data set [1] was 158 to 1580 nM.

As for `CCC(=O)c1c(-c2ccc(-c3ccccc3)cc2)c(C)n2c1-c1cc(OC)c(OC)cc1CC2` [Example 5, 1-(2-Biphenyl-4-yl-8,9-dimethoxy-3-methyl-5,6-dihydro-pyrrolo[2,1-a]isoquinolin-1-yl)-propan-1-one], the melting point was in the range of 209 to 211 °C. Also, in data set [1], the IC50 is 158 to 1580 nM.

Turning to `COc1cc2c(cc1OC)-c1c(C(=O)C3CC3)c(-c3cc(C)c(O)c(C)c3)c(C)n1CC2` [Example 6, 1-Cyclopropyl-1-[2-(4-hydroxy-3,5-dimethyl-phenyl)-8,9-dimethoxy-3-methyl-5,6-dihydro-pyrrolo[2,1-a]isoquinolin-1-yl]-methanone], in data set [1], the IC50 was 158 to 1580 nM.

For `Nc1ncnc2c1nc(Sc1ccc(Cl)cc1)n2[C@@H]1O[C@@H]2COP(O)(=S)O[C@H]2[C@H]1O` (stereo partly shown) [RP-8-CPT-cAMPs], the “synergistic effects with the compounds according to this invention” value in data set [2] is “highly synergistic”.
